Test results reported in PMC10666548, “Identification of the bacterial metabolite aerugine as potential trigger of human dopaminergic neurodegeneration” (Environment international, 2023).
Entries after “also recorded” stand apart in the source; their conditions may differ.

Key:
[1] = test system: mitochondrial respiration in LUHMES cells; test: Seahorse assessment of mitochondrial respiratory parameters; format: cell-based, human; conditions: d3 LUHMES
Protocol: The method was performed as described previously. ([Delp et al., 2018]) In brief, LUHMES cells were seeded on d2 into pre-coated Agilent Seahorse XFe24 well plates at a density of 100′000 cells/well in differentiation medium. On d3 the cells were analyzed in a Seahorse XF analyzer using the Mito stress test kit in accordance with the manufacturer’s instructions. In brief, 1 h prior to analysis the medium was changed to Seahorse XF base medium supplemented with 18 mM glucose, 2 mM glutamine and 1 mM pyruvate. The oxygen consumption rate (OCR) was measured to determine the basal respiration in untreated cells. After test compound injection the acute response was quantified. […] The addition of 0.5 μM rotenone and 0.5 μM antimycin A completely shut down mitochondrial respiration to quantify non-mitochondrial respiration. […] Image acquisition was performed using an Array-Scan VTI HCS Reader (Cellomics, PA, USA) equipped with a Hamamatsu ORCA-ER camera. […] Nuclei were identified and quantified depending on intensity, area, size and shape. According to pixel size and well size the total cell count was calculated and used for normalization of the OCR data. […]
A The effect of aerugine on respiratory function was analysed in d3 LUHMES cells. […] C Delp et al. (2019) determined the dependence of LUHMES cells on glycolysis and their mitochondria for ATP production in two different media conditions. […]

[2] = test system: C. elegans strains BY200 and Punc-25; test: C. elegans lethality analysis (eight day survival test); format: in vivo, Caenorhabditis elegans; conditions: L4 larval stage, 8, 40 and 100 μM, up to 8 days
Protocol: The strain BY200 Pdat-1::gfp (vtIs1), dat-1::GFP(vtls1) was kindly provided by the Blakely laboratory, Vanderbilt University Medical Center and the strain Punc-25:GFP was obtained from the Caenorhabditis Genetics Center (CGC, University of Minnesota, Minneapolis, MN, USA). The worms were maintained in nematode growth medium (NGM) plates that contain: 3 g/l NaCl, 17 g/l agar, 2.5 g/l peptone, 1 mM CaCl2, 5 mg/l cholesterol, 1 mM MgSO4, 25 mM potassium phosphate buffer (pH 6.0) with 1.25 ml nystatin and 50 mg/l streptomycin sulfate) and Escherichia coli (E. coli) OP50 strain was used as food ([Brenner, 1974]). Synchronization of worms was carried out using extraction solution (0.2% NaOCl, 0.5 M NaOH, in distilled water). The first larval stage (L1) population were obtained by isolating eggs with a 30% sucrose gradient, washed with sterile water, and resuspended in M9 buffer (42 mM Na2HPO4, 22 mM KH2PO4, 8.5 mM NaCl, and 1 mM MgSO4) ([Sulston and Hodgkin, 1998]).
For the lethality analysis, 40 to 60 BY200 and P unc-25 worms at L4 larval stage were exposed to vehicle or aerugine (8, 40 and 100 μM) in OP50-seeded NGM plates from day 0 until day 8. […] Moreover, worms were transferred to fresh plates for the first three days of treatment, which coincide with the egg laying days to avoid mixing of different generations. […]

OCC1CSC(c2ccccc2O)=N1 (stereo not drawn) [aerugine, 2-[4-(hydroxymethyl)-4,5-dihydro-1,3-thiazol-2-yl]phenol]
functional respiratory parameters (e.g. basal respiration, ATP production) [1]: no significant difference was observed
oxygen consumption rate (OCR) ([1]; various metabolic conditions): not different from control conditions; also recorded: No interaction
general survival of worms [2]: neither triggered death during the first 2 days; also recorded: not affected
